PMC9527314, “Structural insights into the binding of zoledronic acid with RANKL via computational simulations” (Frontiers in Molecular Biosciences, 2022)

Target: T1, human RANKL trimer (Homo sapiens, UniProt O14788)
T1 construct: gene TNFSF11; recombinant human RANKL trimer protein from ACROBiosystems; homotrimer; amine-coupled to CM5 chip
T1 sequence (O14788 140-317 limits assumed): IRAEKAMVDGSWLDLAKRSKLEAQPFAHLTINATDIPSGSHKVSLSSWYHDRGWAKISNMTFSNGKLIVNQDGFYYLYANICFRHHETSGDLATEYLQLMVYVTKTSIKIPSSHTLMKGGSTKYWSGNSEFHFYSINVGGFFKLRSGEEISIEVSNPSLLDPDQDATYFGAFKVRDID
Assay: SPR (Biacore T200), RANKL immobilised on CM5 chip, steady-state fit
Assay type: binding

O=P(O)(O)C(O)(Cn1ccnc1)P(=O)(O)O [Zoledronic acid]
Kd: 228 µM
